According to patent US20160251725A1, “METHOD FOR PREDICTING CLINICAL TOXICITY AND OUTCOME” (AGENCY FOR SCIENCE, TECHNOLOGY AND RESEARCH, priority 2013, published 2016):
Read-outs that look alike come from different tables or passages of the source.

Assays:
[1] = test system: patients; details: cited from earlier work; for Dose reductions: n = 96, Beuselinck et al., 2014
[2] = test system: mRCC patients; test: Tumor response to sunitinib (RECIST version 1.1), clinical benefit / primary resistance; format: in vivo, human
Experimental: (§1) Twelve patients in this study received a starting dose of 50 mg daily. Six patients started with 25 mg daily due to advanced age or patients' aversion to expected toxicities.
Patient characteristics were also collected including age, gender, ethnicity, body weight and height, and Eastern Cooperative Oncology Group (ECOG) performance status. Memorial Sloan-Kettering Cancer Center (MSKCC) prognostic score was calculated for each patient with available data. All the collected data were de-identified by a third party before being used in statistical analysis. The follow-up period ended at the end of April, 2014.
(§2) Genotype associations with toxicity events or responsive tumor were first analyzed using univariate logistic regression. Genotypes generating P<0.20 were further analyzed using multivariate logistic regression including patient age, gender, baseline ECOG status and starting dose as covariates. Progression-free survival and overall survival were estimated by means of Kaplan-Meier method, while the associations of genotypes and patient characteristics with PFS and OS were analyzed using two-tailed log rank test. The effects of genotypes on the progression-free survival and overall survival were then evaluated using multivariate Cox regression model by including genotypes and patient characteristics with P<0.05 in univariate analysis. […] In all analyses, missing data were kept missing except for baseline ECOG status, which was replaced with the median value. As this was designed as a validation study of previously observed correlations rather than an exploratory evaluation, multiple testing correction was not done.

[3] = test system: mRCC patients; test: Progression-free and overall survival on first-line sunitinib (Kaplan-Meier, Cox regression); format: in vivo, human; details: for Overall survival HR multivariate / Progression-free survival HR multivariate: starting dose as covariate
Experimental: as §1, §2

[4] = ABCG2 421 C/A AA genotype, n = 65, Kim et al., 2013
[5] = ABCB1 haplotype TTT/TTT vs Other
[6] = ABCB1 haplotype TTT/TTT (homozygous carriers)

## CCN(CC)CCNC(=O)c1c(C)[nH]c(/C=C2\C(=O)Nc3ccc(F)cc32)c1C [sunitinib]
[1]; ABCB1 1236 T/C TT genotype
  Dose reductions: Less dose
[1]; ABCB1 2677G/TA TT or TA genotypes
  Dose reductions: Less dose
[1]; ABCB1 TTT haplotype, n = 219, van Erp et al., 2009
  HFS (hand-foot syndrome): HFS increased
[1]; [4]
  HFS (hand-foot syndrome): More
  Neutropenia: More
  Thrombocytopenia: More
[1]; in vivo
  Any toxicity grade>2: increased with T
  Leucopenia: increased with T
[2]; ABCB1 2677 G/TA Other
  Clinical benefit prevalence: 55/79
[2]; ABCB1 2677 G/TA TT
  Clinical benefit prevalence: 4/11
[2]; ABCB1 2677 TT vs Other
  Clinical benefit OR multivariate: 0.1
  Clinical benefit OR univariate: 0.3
[2]; ABCB1 3435 C/T CC + CT
  Clinical benefit prevalence: 54/78
[2]; ABCB1 3435 C/T TT
  Clinical benefit prevalence: 5/12
[2]; ABCB1 3435 TT vs CC + CT
  Clinical benefit OR multivariate: 0.2
  Clinical benefit OR univariate: 0.3
[2]; ABCB1 haplotype Other
  Clinical benefit prevalence: 57/82
[2]; ABCB1 haplotype TTT/TTT
  Clinical benefit prevalence: 2/8
[2]; [5]
  Clinical benefit OR multivariate: 0.1
  Clinical benefit OR univariate: 0.2
[2]; Age
  Clinical benefit OR univariate: 1.0
[2]; Baseline ECOG 0
  Clinical benefit prevalence: 20/25
[2]; Baseline ECOG 1
  Clinical benefit prevalence: 31/49
[2]; Baseline ECOG 1 vs 0
  Clinical benefit OR univariate: 0.4
[2]; Baseline ECOG 2
  Clinical benefit prevalence: 5/11
[2]; Baseline ECOG 2 vs 0
  Clinical benefit OR univariate: 0.2
[2]; Baseline ECOG 3
  Clinical benefit prevalence: 3/5
[2]; Baseline ECOG 3 vs 0
  Clinical benefit OR univariate: 0.4
[2]; Female vs Male
  Clinical benefit OR univariate: 1.2
[2]; Gender Female
  Clinical benefit prevalence: 13/19
[2]; Gender Male
  Clinical benefit prevalence: 46/71
[2]; Starting dose 37.5 mg
  Clinical benefit prevalence: 49/75
[2]; Starting dose 50 mg
  Clinical benefit prevalence: 9/11
[2]; Starting dose 37.5 vs ≦37.5 mg
  Clinical benefit OR univariate: 5.7
[2]; Starting dose ≦37.5 mg
  Clinical benefit prevalence: 1/4
[2]; all patients (n = 90)
  Clinical benefit prevalence (cases with PR or SD as best response/total in group): 59/90
[3]; ABCB1 1236 T/C CC + CT
  Median overall survival: 20 months
  Median progression-free survival: 11.7 months
[3]; ABCB1 1236 T/C TT
  Median overall survival: 10.4 months
  Median progression-free survival: 3.6 months
[3]; ABCB1 1236 TT vs CC + CT
  Overall survival HR univariate: 1.7
  Progression-free survival HR univariate: 1.7
  Overall survival HR multivariate: 1.7
  Progression-free survival HR multivariate: 1.7
[3]; ABCB1 2677 G/TA Other
  Median overall survival: 19.6 months
  Median progression-free survival: 8.4 months
[3]; ABCB1 2677 G/TA TT
  Median overall survival: 5.9 months
  Median progression-free survival: 2.7 months
[3]; ABCB1 2677 TT vs Other
  Overall survival HR univariate: 2.9
  Progression-free survival HR univariate: 2.3
  Overall survival HR multivariate: 2.0
  Progression-free survival HR multivariate: 1.5
[3]; ABCB1 3435 C/T CC + CT
  Median overall survival: 19.5 months
  Median progression-free survival: 8.4 months
[3]; ABCB1 3435 C/T TT
  Median overall survival: 7.2 months
  Median progression-free survival: 2.7 months
[3]; ABCB1 3435 TT vs CC + CT
  Overall survival HR univariate: 1.6
  Progression-free survival HR univariate: 1.7
  Overall survival HR multivariate: 1.7
  Progression-free survival HR multivariate: 1.7
[3]; ABCB1 haplotype Other
  Median overall survival: 19.6 months
  Median progression-free survival: 8.4 months
[3]; [6]
  Median overall survival: 4.6 months
  Median progression-free survival: 2.4 months
[3]; [5]
  Overall survival HR univariate: 3.9
  Progression-free survival HR univariate: 4.9
  Overall survival HR multivariate: 5.0
  Progression-free survival HR multivariate: 5.5
[3]; Age
  Overall survival HR univariate: 1.0
  Progression-free survival HR univariate: 1.0
[3]; Baseline ECOG 0
  Median overall survival: 32.9 months
  Median progression-free survival: 16.1 months
[3]; Baseline ECOG 1
  Median overall survival: 19.6 months
  Median progression-free survival: 6.9 months
[3]; Baseline ECOG 1 vs 0
  Overall survival HR univariate: 1.9
  Progression-free survival HR univariate: 2.2
[3]; Baseline ECOG 2
  Median overall survival: 5.7 months
  Median progression-free survival: 3.3 months
[3]; Baseline ECOG 2 vs 0
  Overall survival HR univariate: 3.0
  Progression-free survival HR univariate: 2.8
[3]; Baseline ECOG 3
  Median overall survival: 15.7 months
  Median progression-free survival: 12.9 months
[3]; Baseline ECOG 3 vs 0
  Overall survival HR univariate: 2.7
  Progression-free survival HR univariate: 2.8
[3]; Gender Female
  Median overall survival: 19.9 months
  Median progression-free survival: 10.0 months
[3]; Gender Male
  Median overall survival: 16.3 months
  Median progression-free survival: 8.1 months
[3]; MSKCC Good
  Median overall survival: 41.4 months
  Median progression-free survival: 12.6 months
[3]; MSKCC Intermediate
  Median overall survival: 19.6 months
  Median progression-free survival: 10.0 months
[3]; MSKCC Intermediate vs Good
  Overall survival HR univariate: 2.2
  Progression-free survival HR univariate: 1.3
[3]; MSKCC Poor
  Median overall survival: 14 months
  Median progression-free survival: 5.5 months
[3]; MSKCC Poor vs Good
  Overall survival HR univariate: 3.1
  Progression-free survival HR univariate: 2.3
[3]; Male vs Female
  Overall survival HR univariate: 1.1
  Progression-free survival HR univariate: 1.1
[3]; Starting dose 37.5 mg
  Median overall survival: 19.5 months
  Median progression-free survival: 8.3 months
[3]; Starting dose 50 mg
  Median overall survival: 47.4 months
  Median progression-free survival: 17.3 months
[3]; Starting dose 37.5 vs ≦37.5 mg
  Overall survival HR univariate: 0.2
[3]; Starting dose 50 vs ≦37.5 mg
  Overall survival HR univariate: 0.1
[3]; Starting dose ≦37.5 mg
  Median overall survival: 4.6 months
  Median progression-free survival: 1.8 months
[3]; all 81 first-line patients
  Median overall survival: 19.5 months
  Median progression-free survival: 8.1 months
